PubChem BioAssay AID1963875 (Molecular Pharmacology Branch, DTP, NCI, 2024)

Tested on: KRAS-mutant PDC complex spheroid viability
Assay: Anticancer human tumor 186277-243-T-J2-PDC patient-derived colon adenocarcinoma cell line growth inhibition [KRAS2]
Conditions: for IC50: curve of first compound; for viability, T/C: stronger effect = lower value
Method in brief: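 KRAS-mutant tumor cells were grown as spheroids with HUVEC endothelial cells and human MSCs as stroma. Targeted agents were tested alone and with KRAS pathway inhibitors. Doses started at or near clinical Cmax, or 10 microM, descending half-log.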

[1] = second compound 0.1 µM, first compound 0.0316 µM
[2] = second compound 0.1 µM, first compound 0.1 µM
[3] = second compound 0.1 µM, first compound 0.316 µM
[4] = second compound 0.1 µM, first compound 1 µM
[5] = second compound 0.1 µM, first compound 3.16 µM
[6] = second compound 0.1 µM, first compound 10 µM
[7] = second compound 0.316 µM, first compound 0.0316 µM
[8] = second compound 0.316 µM, first compound 0.1 µM
[9] = second compound 0.316 µM, first compound 0.316 µM
[10] = second compound 0.316 µM, first compound 1 µM
[11] = second compound 0.316 µM, first compound 3.16 µM
[12] = second compound 0.316 µM, first compound 10 µM
[13] = second compound 1 µM, first compound 0.0316 µM
[14] = second compound 1 µM, first compound 0.1 µM
[15] = second compound 1 µM, first compound 0.316 µM
[16] = second compound 1 µM, first compound 1 µM
[17] = second compound 1 µM, first compound 3.16 µM
[18] = second compound 1 µM, first compound 10 µM
[19] = second compound 3.16 µM, first compound 0.0316 µM
[20] = second compound 3.16 µM, first compound 0.1 µM
[21] = second compound 3.16 µM, first compound 0.316 µM
[22] = second compound 3.16 µM, first compound 1 µM
[23] = second compound 3.16 µM, first compound 3.16 µM
[24] = second compound 3.16 µM, first compound 10 µM
[25] = second compound 10 µM, first compound 0.0316 µM
[26] = second compound 10 µM, first compound 0.1 µM
[27] = second compound 10 µM, first compound 0.316 µM
[28] = second compound 10 µM, first compound 1 µM
[29] = second compound 10 µM, first compound 3.16 µM
[30] = second compound 10 µM, first compound 10 µM
[31] = second compound 0.1 µM, first compound 0.01 µM
[32] = second compound 0.316 µM, first compound 0.01 µM
[33] = second compound 1 µM, first compound 0.01 µM
[34] = second compound 3.16 µM, first compound 0.01 µM
[35] = second compound 10 µM, first compound 0.01 µM
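Wherever viability, T/C is given: viability read after seven days of compound exposure; 100% = DMSO vehicle-treated spheroids so lower means less viable.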

Row | Compound | IC50 (second compound 0.1 µM) [µM] | IC50 (second compound 0.316 µM) [µM] | IC50 (second compound 1 µM) [µM] | IC50 (second compound 3.16 µM) [µM] | IC50 (second compound 10 µM) [µM] | viability, T/C [1] [%] | viability, T/C [2] [%] | viability, T/C [3] [%] | viability, T/C [4] [%] | viability, T/C [7] [%] | viability, T/C [8] [%] | viability, T/C [9] [%] | viability, T/C [10] [%] | viability, T/C [13] [%] | viability, T/C [14] [%] | viability, T/C [15] [%] | viability, T/C [16] [%] | viability, T/C [19] [%] | viability, T/C [20] [%] | viability, T/C [21] [%] | also measured
1 | CC(C)NCC(C(=O)N1CCN(c2ncnc3c2C(C)CC3O)CC1)c1ccc(Cl)cc1 (stereo not given) + CC1OCC2(CCN(c3cnc(Sc4ccnc(N)c4Cl)c(N)n3)CC2)C1N | 0.498 | 0.389 | 0.268 | 0.134 | 0.0572 | 110 | 98.2 | 55.2 | 34.9 | 134 | 96.9 | 54.3 | 26.5 | 115 | 94 | 41.5 | 16 | 86.5 | 58.3 | 25.6 | viability, T/C [5]: 25.7%; viability, T/C [6]: 9.35%; viability, T/C [11]: 17.3%; viability, T/C [12]: 7.17%; viability, T/C [17]: 10.7%; viability, T/C [18]: 4.01%; viability, T/C [22]: 8.57%; viability, T/C [23]: 3.93%; viability, T/C [24]: 2.37%; viability, T/C [25]: 65.1%; viability, T/C [26]: 35.8%; viability, T/C [27]: 9.46%; viability, T/C [28]: 3.07%; viability, T/C [29]: 1.79%; viability, T/C [30]: 1.34%
2 | CC1COCCN1c1cc(-c2ccnn2C)c2ccnc(-c3ccn[nH]3)c2n1 (stereo not given) + CC1OCC2(CCN(c3cnc(Sc4ccnc(N)c4Cl)c(N)n3)CC2)C1N | 0.0207 | 0.0216 | 0.0215 | 0.0207 | 0.0152 | 30.9 | 4.6 | 3.38 | 2.91 | 29.9 | 4.69 | 2.62 | 2.7 | 18.7 | 3.36 | 2.01 | 2.23 | 14.6 | 3.13 | 1.78 | viability, T/C [31]: 82.6%; viability, T/C [5]: 3.41%; viability, T/C [32]: 90.3%; viability, T/C [11]: 3.03%; viability, T/C [33]: 113%; viability, T/C [17]: 2.83%; viability, T/C [34]: 111%; viability, T/C [22]: 1.9%; viability, T/C [23]: 2.66%; viability, T/C [35]: 72.9%; viability, T/C [25]: 10.5%; viability, T/C [26]: 4.95%; viability, T/C [27]: 4.89%; viability, T/C [28]: 2.16%; viability, T/C [29]: 3.22%
3 | CCN1CCN(Cc2ccc(Nc3ncc(F)c(-c4cc(F)c5nc(C)n(C(C)C)c5c4)n3)nc2)CC1 + CC1OCC2(CCN(c3cnc(Sc4ccnc(N)c4Cl)c(N)n3)CC2)C1N | > 1 | 0.839 | 0.574 | 0.326 | 0.102 | 113 | 148 | 161 | 60.8 | 138 | 155 | 125 | 36.8 | 138 | 125 | 82.3 | 19.9 | 97 | 85.1 | 52.2 | viability, T/C (second compound 0.1 µM, first compound 0.00316 µM): 96.9%; viability, T/C [31]: 88.9%; viability, T/C (second compound 0.316 µM, first compound 0.00316 µM): 95.2%; viability, T/C [32]: 98.7%; viability, T/C (second compound 1 µM, first compound 0.00316 µM): 88.8%; viability, T/C [33]: 118%; viability, T/C (second compound 3.16 µM, first compound 0.00316 µM): 113%; viability, T/C [34]: 130%; viability, T/C [22]: 8.29%; viability, T/C (second compound 10 µM, first compound 0.00316 µM): 123%; viability, T/C [35]: 92.3%; viability, T/C [25]: 67%; viability, T/C [26]: 56.8%; viability, T/C [27]: 28.7%; viability, T/C [28]: 3.85%
4 | CCNC(=O)CC1N=C(c2ccc(Cl)cc2)c2cc(OC)ccc2-n2c(C)nnc21 (stereo not given) + CC1OCC2(CCN(c3cnc(Sc4ccnc(N)c4Cl)c(N)n3)CC2)C1N | 5.83 | 1.05 | 0.338 | 0.155 | 0.051 | 92.5 | 104 | 144 | 92.7 | 108 | 121 | 103 | 50.6 | 97.6 | 128 | 52.2 | 16.2 | 109 | 67.8 | 20.9 | viability, T/C [5]: 66%; viability, T/C [6]: 37%; viability, T/C [11]: 26.5%; viability, T/C [12]: 16.8%; viability, T/C [17]: 14%; viability, T/C [18]: 8.15%; viability, T/C [22]: 7.45%; viability, T/C [23]: 4.82%; viability, T/C [24]: 4.45%; viability, T/C [25]: 64.2%; viability, T/C [26]: 30%; viability, T/C [27]: 9.5%; viability, T/C [28]: 4.12%; viability, T/C [29]: 3.89%; viability, T/C [30]: 2.6%
